{"source": "paper PMC8333425", "about": "“Discovery of a dual Ras and ARF6 inhibitor from a GPCR endocytosis screen” (Nature Communications, 2021)", "molecular_target": "T1, ARF6 (Homo sapiens, UniProt P62330)", "T1 construct": "expressed in transfected cells; host or cells: HEK293SL", "T1 sequence (P62330 whole entry, species assumed)": "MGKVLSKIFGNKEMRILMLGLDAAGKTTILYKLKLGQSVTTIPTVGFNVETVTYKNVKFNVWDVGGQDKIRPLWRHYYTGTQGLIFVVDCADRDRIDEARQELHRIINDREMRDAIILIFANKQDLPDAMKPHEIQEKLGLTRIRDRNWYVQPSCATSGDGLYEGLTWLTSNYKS", "test": "GST-GGA3-PBD pull-down of AT1R-mediated HA-ARF6 activation", "type": "cell-based", "conditions": "for ARF6-GTP/ARF6, GST-GGA3-PBD pull down: Comp 21 50 μM, individual experiments", "method": "HEK293 cells were transfected with a BRET sensor that monitors the interaction between β-arrestins and the β-appendage of AP-2 (Fig. 2a)[26],[33]. […] The small GTPase ARF6, which binds β-arrestins and facilitates AP-2 and clathrin recruitment at the PM, is also necessary for CCPs initiation and receptor internalization. Therefore, ARF6 activity was assessed using the protein-3 binding domain (PBD) of the golgi-associated, gamma adaptin ear-containing, ARF-binding protein 3 (GGA3) fused to GST (GST-GGA3-PBD) in a pull-down assay, which allows the detection of GTP-bound ARF6 in cells[34] (Fig. 2b). […] This inhibition was selective for ARF6 since 21 had no effect on AT1R-dependent ARF1 activation (Supplementary Fig. 2a). We also devised a BRET assay to quantitatively assess 21’s action on ARF activity. The ARF BRET assay was created using the GGA3-PBD fused to RlucII (GGA3-PBD-RlucII) and the rGFP anchored at the PM (rGFP-CAAX) (Supplementary Fig. 3a). […] 21 blocked ARF’s activation by 40–60% following AT1R stimulation (Fig. 2c).\nActivation of ARF1, ARF6, Ras, and Rho were assessed by using GST pull-down assays. HEK293SL cells were transiently transfected with 3 µg AT1R-flag only (Ras and Rho) or along with 500 ng HA-ARF6 (ARF6) or HA-ARF1 (ARF1). Forty-eight hours later, the HEK293 or MDA-MB-231 cells were serum-starved for 4 h with DMEM containing 20 mM HEPES then pretreated with DMSO or Rasarfin (50 µM) for 30 min. Cells were then stimulated with 1 µM AngII or 100 ng/ml EGF for 0 and 2 min. Cells were then washed once with ice-cold PBS and lysed for 30 min at 4 °C in 300 µl of lysis buffer (pH 7.5, 50 mM Tris-HCl, 140 mM NaCl, 5 mM MgCl2, 10% glycerol (v/v), 1% Nonidet P-40 (v/v), 1 mM dithiothreitol) supplemented with protease inhibitors (1 mM phenylmethyl-sulfonyl fluoride (PMSF), 10 µg/ml leupeptin, 5 µg/ml aprotinin, 1 µg/ml pepstatin A) and phosphatase inhibitors (20 mM NaF, 0.025 mM pervanadate). […] ImageLab 5.2 software was used to quantify the digital blots as fold of the amount of pulled down protein over total protein. […]", "note": "“And” between values parts separate entries of the source, which are not always exact repeats. Equal values may be shown once.", "data": [{"smiles": "CC(C)C(=O)N1CCN(c2ccc(NC(=O)c3cc4ccccc4o3)cc2Cl)CC1", "note": "[Compound 21]", "values": [{"measurement": "inhibition at 50 µM", "setting": "50 μM, read-out: inhibition of ARF6-GTP (AngII-stimulated cells, pull-down)", "value": "> 70", "unit": "%"}, {"measurement": "ARF6-GTP/ARF6, GST-GGA3-PBD pull down", "setting": "AngII", "value": "0.1415 and 0.1921 and 0.09307 and 0.2014"}, {"measurement": "ARF6-GTP/ARF6, GST-GGA3-PBD pull down", "setting": "Control (no AngII)", "value": "0.0894 and 0.1773 and 0.03131 and 0.1335"}]}]}
